Measurements taken from PMC5428521, “Identification of a Novel, Small Molecule Partial Agonist for the Cyclic AMP Sensor, EPAC1” (Scientific Reports, 2017).
Several values for one entry are separate records, joined by “and”; a condition that tells them apart may be missing. Identical values can stand only once.

Assays:
[1] = target: T1, EPAC1 (amino acids 149–881) (Homo sapiens, UniProt O95398); assay: In vitro GEF activity assay (MANT-GDP dissociation from Rap1), EPAC1; type: biochemical; settings: for AC50: AC50, GEF Activation (no cAMP), from kobs vs concentration
T1 construct: recombinant EPAC1 (amino acids 149–881); made in house; host or cells: bacteria
T1 sequence (O95398 149-881 isoform O95398-3): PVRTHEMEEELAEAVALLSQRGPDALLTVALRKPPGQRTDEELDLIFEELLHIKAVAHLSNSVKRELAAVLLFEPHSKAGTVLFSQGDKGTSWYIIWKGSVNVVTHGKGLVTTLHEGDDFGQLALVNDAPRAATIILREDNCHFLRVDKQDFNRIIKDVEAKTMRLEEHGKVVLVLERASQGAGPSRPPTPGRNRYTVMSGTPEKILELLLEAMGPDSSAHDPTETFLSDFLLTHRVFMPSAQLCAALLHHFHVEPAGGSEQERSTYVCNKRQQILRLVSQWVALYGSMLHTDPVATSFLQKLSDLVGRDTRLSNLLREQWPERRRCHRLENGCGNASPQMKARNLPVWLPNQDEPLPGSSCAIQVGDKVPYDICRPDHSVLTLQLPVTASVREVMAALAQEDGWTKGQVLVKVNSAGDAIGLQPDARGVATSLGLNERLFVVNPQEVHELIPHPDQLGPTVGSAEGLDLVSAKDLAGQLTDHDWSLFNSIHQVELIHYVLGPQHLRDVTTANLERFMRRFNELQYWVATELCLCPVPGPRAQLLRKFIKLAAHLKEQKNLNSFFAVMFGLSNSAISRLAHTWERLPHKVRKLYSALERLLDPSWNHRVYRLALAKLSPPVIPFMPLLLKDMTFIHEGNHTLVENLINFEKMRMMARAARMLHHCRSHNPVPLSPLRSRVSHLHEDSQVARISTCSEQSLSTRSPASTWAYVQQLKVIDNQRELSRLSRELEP
Procedure: For this, we used the well-characterised EPAC GEF activity assay. The assay is based on the EPAC-stimulated dissociation of fluorescent MANT-GDP from recombinant Rap1 in the presence of excess non-fluorescent nucleotide.
The data are fitted as single exponential decay with off-set (red lines) to obtain the rate constants kobs, as shown in (b).
EPAC1 and EPAC2 in vitro GEF activities were calculated as previously described. Briefly, recombinant EPAC1 (amino acids 149–881) or EPAC2 (amino acids 280–993) were incubated at 100 nM with recombinant Rap1 (200 nM) preloaded with the fluorescent GDP analogue 2′/3′-O-(N-Methylanthraniloyl)guanosine 5-diphosphate (MANT-GDP) in the presence of 20 μM GDP and then the fluorescence intensity was measured at 360/450 nm (ex/em) over time. […] AC50 or IC50 values were determined from the plots of kobs against the concentration of the agonist and antagonist, respectively Table 1.

protein kinase A (PKA) = assay: PKA kinase activity assay in HEK293T cell extracts; type: biochemical; settings: 1 mM cAMP, compound 0.1 to 100 µM
Procedure: PKA activity was measured directly in cell extracts using the PKA Kinase Activity Assay Kit (Abcam) following the manufacturer's instructions. […] Cells were washed in ice-cold PBS containing phosphatase inhibitors, scrapped into Eppendorf tubes and centrifuged at 200 × g at 4 °C for 5 minutes. Supernatants were discarded and the cell pellet was re-suspended in Complete Lysis Buffer containing 1 mM DTT, 1 mM PMSF and protease inhibitor cocktail (Roche) and then incubated for 10 minutes on ice (on the rocking platform) followed by vortex and centrifugation at […] at 4 °C for 20 minutes. Cell extracts were then transferred to fresh Eppendorf tubes, assayed for protein content and then stored at -80 °C. […] Next, 10 μl of ATP was added to each well and incubated at 30 °C for 90 min, with gentle shaking. The reaction was stopped by aspirating the contents of each well and then 40 μl of PKA phosphospecific substrate antibody was added to each well and then the plate was covered with plastic wrap and incubated at room temperature for 60 min (with gentle shaking every 20 min). […] Fluorescence was then measured at 480/530 nm. […] PKA activity was then measured in the cell extracts using an ELISA assay according to the manufactures instructions. […]

Row | Compound | IC50 [1] [µM] | AC50 ([1]; absence of cAMP) | effect on PKA activity induced by cAMP (protein kinase A (PKA)) | maximal induced activity, fold lower than that of cAMP ([1]; absence of cAMP)
1 | O=C(COc1ccc2ccccc2c1)NS(=O)(=O)c1ccccc1 [I178, N-(benzenesulfonyl)-2-(naphthalen-2-yloxy)acetamide] | ~500 | 200 µM and ~200 µM | – | –
2 | Cc1ccc(S(=O)(=O)NC(=O)COc2ccc3ccccc3c2)c(C)c1 [I942, N-(2,4-dimethylbenzenesulfonyl)-2-(naphthalen-2-yloxy)acetamide] | ~300 | 50 µM and ~50 µM | did not significantly affect PKA activity | around 10 fold
